In ChEMBL document CHEMBL1201862, “PubChem BioAssay data set” (2004):
Calls of active or inactive are those of the source.

Tests used:
[1] = molecular target: T1, Zinc finger protein mex-5 (Caenorhabditis elegans, UniProt Q9XUB2); assay: MEX-5/TCR-2 RNA interaction inhibitors, dose response, biochemical, C. elegans, fluorescence polarization (AID 1960)
T1 sequence (Q9XUB2 whole entry): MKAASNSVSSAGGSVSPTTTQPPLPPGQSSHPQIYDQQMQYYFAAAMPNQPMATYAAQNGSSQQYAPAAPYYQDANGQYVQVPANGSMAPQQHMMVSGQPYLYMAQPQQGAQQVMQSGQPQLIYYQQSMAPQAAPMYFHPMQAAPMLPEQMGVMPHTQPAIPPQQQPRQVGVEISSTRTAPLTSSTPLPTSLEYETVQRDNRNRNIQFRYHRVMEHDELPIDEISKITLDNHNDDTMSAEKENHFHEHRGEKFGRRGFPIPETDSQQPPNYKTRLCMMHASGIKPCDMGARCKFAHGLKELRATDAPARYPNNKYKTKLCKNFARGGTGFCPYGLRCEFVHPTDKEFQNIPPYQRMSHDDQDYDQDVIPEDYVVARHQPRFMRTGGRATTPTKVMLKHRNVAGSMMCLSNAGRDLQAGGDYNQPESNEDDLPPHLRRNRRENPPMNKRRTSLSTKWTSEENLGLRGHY

[2] = molecular target: UDP-galactopyranose mutase (Mycobacterium tuberculosis, UniProt P9WIQ1); assay: Inhibitors of Mycobacterium tuberculosis UDP-galactopyranose mutase (UGM) enzyme Measured in Biochemical System Using Plate Reader - 2105-02_Inhibitor_Dose_CherryPick_Activity. [Related pubchem assays (depositor defined):AID504439]
Chain of UDP-galactopyranose mutase (P9WIQ1 whole entry, the tested form may be a part): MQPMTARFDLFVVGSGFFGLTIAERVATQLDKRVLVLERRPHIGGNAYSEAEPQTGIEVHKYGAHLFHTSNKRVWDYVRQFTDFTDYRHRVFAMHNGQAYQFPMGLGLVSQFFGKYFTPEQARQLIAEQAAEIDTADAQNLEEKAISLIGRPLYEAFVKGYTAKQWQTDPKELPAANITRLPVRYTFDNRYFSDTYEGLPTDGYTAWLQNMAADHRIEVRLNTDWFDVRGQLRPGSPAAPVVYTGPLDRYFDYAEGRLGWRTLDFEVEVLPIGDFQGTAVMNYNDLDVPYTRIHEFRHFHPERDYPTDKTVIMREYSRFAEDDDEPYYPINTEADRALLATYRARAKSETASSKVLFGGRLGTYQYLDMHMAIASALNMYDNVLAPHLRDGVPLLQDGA

[3] = molecular target: T2, RNA-binding protein pos-1 (Caenorhabditis elegans, UniProt G5EF15); assay: inhibitors of POS-1/mex-3 RNA binding, dose response, biochemical, fluorescence polarization (AID 1964);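 further: purified POS-1 fused to maltose binding protein made in E. coli; potency of compounds blocking POS-1 binding to fluorescent RNA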
T2 sequence (G5EF15 whole entry): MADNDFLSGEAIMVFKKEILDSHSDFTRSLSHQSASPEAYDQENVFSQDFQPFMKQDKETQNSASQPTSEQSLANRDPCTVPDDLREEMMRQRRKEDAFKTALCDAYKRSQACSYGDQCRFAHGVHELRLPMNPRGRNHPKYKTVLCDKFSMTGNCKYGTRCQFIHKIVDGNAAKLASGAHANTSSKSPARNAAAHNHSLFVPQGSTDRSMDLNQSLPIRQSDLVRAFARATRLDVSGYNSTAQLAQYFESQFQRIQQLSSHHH

Cytochrome P450 1A2 = molecular target: T3, Cytochrome P450 1A2 (Homo sapiens, UniProt P05177);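 further: PubChem cytochrome P450 panel assay, CYP1A2 panel member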
T3 sequence (P05177 whole entry): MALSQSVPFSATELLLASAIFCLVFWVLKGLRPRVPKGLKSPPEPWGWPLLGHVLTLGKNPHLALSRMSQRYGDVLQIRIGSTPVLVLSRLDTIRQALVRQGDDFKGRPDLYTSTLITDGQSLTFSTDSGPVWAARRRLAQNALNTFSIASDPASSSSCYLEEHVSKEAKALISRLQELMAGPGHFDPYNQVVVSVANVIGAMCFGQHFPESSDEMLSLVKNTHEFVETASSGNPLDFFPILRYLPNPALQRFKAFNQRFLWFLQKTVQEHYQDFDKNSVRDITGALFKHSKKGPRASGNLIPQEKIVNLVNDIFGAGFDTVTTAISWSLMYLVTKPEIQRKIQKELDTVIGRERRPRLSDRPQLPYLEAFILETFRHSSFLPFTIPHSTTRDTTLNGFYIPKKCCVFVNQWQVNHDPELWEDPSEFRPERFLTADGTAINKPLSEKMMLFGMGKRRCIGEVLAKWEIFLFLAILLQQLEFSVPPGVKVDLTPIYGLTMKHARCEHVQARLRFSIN

Cytochrome P450 2D6 = Cytochrome P450 2D6 (Homo sapiens, UniProt P10635);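 further: CYP2D6 member of a cytochrome P450 panel assay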
Chain of Cytochrome P450 2D6 (P10635 whole entry): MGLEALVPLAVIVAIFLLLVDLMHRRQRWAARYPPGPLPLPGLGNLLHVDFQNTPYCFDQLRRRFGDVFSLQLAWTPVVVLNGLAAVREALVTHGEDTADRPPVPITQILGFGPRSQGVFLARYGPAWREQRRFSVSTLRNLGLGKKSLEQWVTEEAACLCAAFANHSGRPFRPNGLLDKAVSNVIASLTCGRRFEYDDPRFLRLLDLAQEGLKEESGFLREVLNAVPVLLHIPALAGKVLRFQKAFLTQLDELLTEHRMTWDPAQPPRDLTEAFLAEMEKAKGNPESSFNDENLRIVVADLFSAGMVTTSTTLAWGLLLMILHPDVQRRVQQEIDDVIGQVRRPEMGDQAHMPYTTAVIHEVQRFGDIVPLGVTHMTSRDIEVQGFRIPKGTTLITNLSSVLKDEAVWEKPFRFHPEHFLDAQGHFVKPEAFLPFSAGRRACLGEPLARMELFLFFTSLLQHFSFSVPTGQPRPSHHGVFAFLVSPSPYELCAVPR

Cytochrome P450 2C19 = Cytochrome P450 2C19 (Homo sapiens, UniProt P33261); assay: Cytochrome panel assay with activity outcomes. Panel member name: p450-cyp2c19 Compounds with AC50 equal or less than 10 uM are considered active; assay type: functional; settings: read-out: AC50
Chain of Cytochrome P450 2C19 (P33261 whole entry, the tested form may be a part): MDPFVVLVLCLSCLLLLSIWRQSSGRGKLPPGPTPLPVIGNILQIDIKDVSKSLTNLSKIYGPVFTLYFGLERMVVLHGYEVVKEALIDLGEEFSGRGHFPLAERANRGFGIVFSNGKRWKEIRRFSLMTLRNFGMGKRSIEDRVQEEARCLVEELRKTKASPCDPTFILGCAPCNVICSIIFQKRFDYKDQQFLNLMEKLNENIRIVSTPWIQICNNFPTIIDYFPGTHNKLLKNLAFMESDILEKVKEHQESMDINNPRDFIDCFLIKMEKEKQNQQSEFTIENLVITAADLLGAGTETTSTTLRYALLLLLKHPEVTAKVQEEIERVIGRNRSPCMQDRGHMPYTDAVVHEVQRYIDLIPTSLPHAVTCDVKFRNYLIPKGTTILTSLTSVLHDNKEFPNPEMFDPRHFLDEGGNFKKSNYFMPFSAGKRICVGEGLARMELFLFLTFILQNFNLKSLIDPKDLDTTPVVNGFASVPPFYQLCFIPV

Apelin receptor = Apelin receptor (Homo sapiens, UniProt P35414); assay: APJ beta-arrestin recruitment antagonism, SAR follow-up, selectivity assay for CCR6 antagonist project, cell-based, luminescent, enzyme-fragment complementation (AID 588359); assay type: functional
Chain of Apelin receptor (P35414 whole entry, the tested form may be a part): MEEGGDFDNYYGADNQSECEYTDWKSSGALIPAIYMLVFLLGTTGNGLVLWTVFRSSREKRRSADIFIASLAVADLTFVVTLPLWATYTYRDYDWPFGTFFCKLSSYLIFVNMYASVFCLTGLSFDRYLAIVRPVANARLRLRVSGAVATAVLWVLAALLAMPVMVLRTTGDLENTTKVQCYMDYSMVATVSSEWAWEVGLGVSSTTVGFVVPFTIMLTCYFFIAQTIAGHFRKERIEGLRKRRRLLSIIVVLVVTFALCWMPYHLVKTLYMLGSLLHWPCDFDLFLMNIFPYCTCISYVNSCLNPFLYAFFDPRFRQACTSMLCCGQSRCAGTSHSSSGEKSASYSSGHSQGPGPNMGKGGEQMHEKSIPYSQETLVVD

Beta-galactosidase = Beta-galactosidase (Escherichia coli, UniProt Q8VNN2); assay: beta-galactosidase enzyme inhibitors and activators, dose response, artefact control for CCR6 antagonist project, biochemical, E. coli enzyme, set 3 (AID 504712); assay type: functional
Chain of Beta-galactosidase (Q8VNN2 whole entry): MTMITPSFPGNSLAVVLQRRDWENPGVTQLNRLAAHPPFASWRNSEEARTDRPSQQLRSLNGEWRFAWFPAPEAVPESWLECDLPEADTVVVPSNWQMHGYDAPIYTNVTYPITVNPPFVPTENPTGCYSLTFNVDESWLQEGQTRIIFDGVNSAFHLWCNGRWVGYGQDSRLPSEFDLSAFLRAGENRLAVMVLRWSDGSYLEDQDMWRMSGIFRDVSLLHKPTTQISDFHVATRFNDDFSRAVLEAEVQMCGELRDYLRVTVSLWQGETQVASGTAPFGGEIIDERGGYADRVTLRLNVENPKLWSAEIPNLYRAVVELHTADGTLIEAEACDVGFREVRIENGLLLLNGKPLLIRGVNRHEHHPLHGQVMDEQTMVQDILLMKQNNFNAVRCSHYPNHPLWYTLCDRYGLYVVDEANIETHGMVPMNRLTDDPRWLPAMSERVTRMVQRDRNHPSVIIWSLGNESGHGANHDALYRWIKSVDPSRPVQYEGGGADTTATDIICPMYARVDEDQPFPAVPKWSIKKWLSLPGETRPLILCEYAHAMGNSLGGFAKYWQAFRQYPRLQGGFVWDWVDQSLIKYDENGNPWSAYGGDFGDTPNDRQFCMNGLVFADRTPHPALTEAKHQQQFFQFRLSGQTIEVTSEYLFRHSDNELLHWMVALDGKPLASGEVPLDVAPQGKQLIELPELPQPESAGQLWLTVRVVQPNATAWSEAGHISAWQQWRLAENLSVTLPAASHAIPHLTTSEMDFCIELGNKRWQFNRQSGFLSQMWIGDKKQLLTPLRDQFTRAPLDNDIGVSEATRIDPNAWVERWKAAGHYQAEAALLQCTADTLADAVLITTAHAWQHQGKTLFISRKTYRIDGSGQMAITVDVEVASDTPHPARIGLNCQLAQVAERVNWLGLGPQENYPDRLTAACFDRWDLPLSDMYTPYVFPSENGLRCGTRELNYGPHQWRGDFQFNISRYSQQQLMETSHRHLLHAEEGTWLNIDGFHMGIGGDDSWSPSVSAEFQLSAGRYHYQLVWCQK

Keap1/Nrf2 = Keap1/Nrf2 (Homo sapiens, UniProt Q14145); assay: Keap1-Nrf2 protein-protein interaction inhibitors, dose response, biochemical, fluorescence polarization, cherry-picked samples (AID 588683)
[4] = inhibitors of firefly luciferase expression or activity, dose response, H4 neuroglioma cells, luminescence (AID 1990); assay type: functional, cell-based
Streptococcus = assay: Group A Streptococcus viability loss, dose response, counter-screen for streptokinase expression inhibitor project, luminescence, BacTiterGlo (AID 1915); assay type: functional, organism-based;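 further: potency for reduction of bacterial viability or growth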
HEK293 [5] = assay: cells; settings: Homo sapiens
[6] = molecular target: C-C chemokine receptor type 6 (Homo sapiens, UniProt P51684); assay: CCR6 receptor antagonists, dose response, cell-based, luminescent beta-arrestin readout (AID 504728); assay type: functional
Chain of C-C chemokine receptor type 6 (P51684 whole entry): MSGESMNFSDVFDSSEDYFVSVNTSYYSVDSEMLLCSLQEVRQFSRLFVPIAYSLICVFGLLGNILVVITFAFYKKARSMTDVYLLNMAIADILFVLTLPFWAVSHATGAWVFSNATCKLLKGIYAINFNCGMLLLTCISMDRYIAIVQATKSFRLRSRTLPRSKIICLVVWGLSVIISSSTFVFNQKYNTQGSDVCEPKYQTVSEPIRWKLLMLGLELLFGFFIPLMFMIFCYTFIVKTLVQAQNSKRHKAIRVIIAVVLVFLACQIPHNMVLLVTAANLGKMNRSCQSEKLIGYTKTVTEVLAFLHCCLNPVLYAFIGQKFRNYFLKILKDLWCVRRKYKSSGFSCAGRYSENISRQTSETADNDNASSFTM

[7] = inhibitors of SNCA 5'UTR-driven reporter translation, confirmation, H4 neuroglioma cells, luminescence (AID 1988); assay type: functional, cell-based
[8] = microbe, parasite or virus in culture; assay type: functional; settings: Mycobacterium tuberculosis
[9] = Luminescence Cell-Based Dose Response HTS to Identify Inhibitors of 5'UTR Stem-Loop Driven Prion Protein mRNA Translation in H4 Neuroglioblastoma Cells. [Related pubchem assays: 1827 (Project Summary), 1813 (Primary HTS)]; assay type: functional
HEK293 [10] = assay: cells; settings: Homo sapiens; remark: listed apart in the source
INS1 = assay: beta cell apoptosis inhibitors, cytokine rescue, dose response, luminescence, retest (AID 449756); assay type: functional, cell-based; settings: Rattus norvegicus;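 further: cell death triggered by IL-1 beta plus TNF-alpha plus IFN-gamma mixture; protective hits raise ATP signal compared with cytokine alone wells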
[11] = tested on: Streptococcus sp. 'group A'; assay: growth inhibition of control SK(-) GAS strain, dose response, counter-screen for streptokinase expression inhibitor project, luminescence, kanamycin, BacTiterGlo, confirmation (AID 1900); assay type: functional, organism-based
Streptokinase A = molecular target: T4, Streptokinase A (Streptococcus pyogenes serotype M1, UniProt P10520); assay: S. pyogenes streptokinase expression inhibitors, potency, dose response, plasminogen activation absorbance, OD405 (AID 1914); assay type: functional, Streptococcus pyogenes M1 GAS;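 further: secreted streptokinase activity via plasminogen activation per viability signal from cell pellet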
T4 sequence (P10520 whole entry): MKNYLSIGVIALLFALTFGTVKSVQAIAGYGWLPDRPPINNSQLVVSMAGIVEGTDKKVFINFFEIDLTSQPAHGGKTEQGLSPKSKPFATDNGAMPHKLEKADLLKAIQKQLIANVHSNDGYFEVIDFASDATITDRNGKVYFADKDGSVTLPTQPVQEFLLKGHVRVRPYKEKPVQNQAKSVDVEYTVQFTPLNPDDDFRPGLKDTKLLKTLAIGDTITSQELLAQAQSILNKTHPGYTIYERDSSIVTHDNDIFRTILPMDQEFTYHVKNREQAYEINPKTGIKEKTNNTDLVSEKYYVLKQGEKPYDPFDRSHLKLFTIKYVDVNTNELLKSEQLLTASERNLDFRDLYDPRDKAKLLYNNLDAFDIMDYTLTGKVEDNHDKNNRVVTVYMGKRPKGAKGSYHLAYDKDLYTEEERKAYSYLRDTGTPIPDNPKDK

[12] = HeLa cell cytotoxicity, dose response, cytotoxicity control for MgcRacGAP inhibitor project (AID 624300); assay type: functional
[13] = molecular target: Intestinal-type alkaline phosphatase (Mus musculus, UniProt P24822); assay: PubChem AID 488874; assay type: functional
Chain of Intestinal-type alkaline phosphatase (Mus musculus, UniProt P24822) (P24822 whole entry): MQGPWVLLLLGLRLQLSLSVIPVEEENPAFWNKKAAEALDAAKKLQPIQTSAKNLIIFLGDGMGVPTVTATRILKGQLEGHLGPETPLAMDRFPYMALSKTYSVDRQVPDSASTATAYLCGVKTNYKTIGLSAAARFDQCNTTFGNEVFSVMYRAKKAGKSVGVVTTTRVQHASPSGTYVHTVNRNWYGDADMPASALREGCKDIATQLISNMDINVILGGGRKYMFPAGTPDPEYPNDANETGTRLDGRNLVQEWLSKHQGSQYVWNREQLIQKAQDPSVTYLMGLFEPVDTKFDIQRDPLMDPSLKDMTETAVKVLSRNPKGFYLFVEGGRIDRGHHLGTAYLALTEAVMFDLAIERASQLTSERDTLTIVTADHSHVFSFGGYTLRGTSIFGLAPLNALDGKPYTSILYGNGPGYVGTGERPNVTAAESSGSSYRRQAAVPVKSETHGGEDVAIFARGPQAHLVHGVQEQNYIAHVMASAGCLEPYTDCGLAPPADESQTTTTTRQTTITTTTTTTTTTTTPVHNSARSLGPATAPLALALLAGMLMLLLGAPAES

[14] = molecular target: Induced myeloid leukemia cell differentiation protein Mcl-1 (Homo sapiens, UniProt Q07820); assay type: functional
Chain of Induced myeloid leukemia cell differentiation protein Mcl-1 (Q07820 whole entry): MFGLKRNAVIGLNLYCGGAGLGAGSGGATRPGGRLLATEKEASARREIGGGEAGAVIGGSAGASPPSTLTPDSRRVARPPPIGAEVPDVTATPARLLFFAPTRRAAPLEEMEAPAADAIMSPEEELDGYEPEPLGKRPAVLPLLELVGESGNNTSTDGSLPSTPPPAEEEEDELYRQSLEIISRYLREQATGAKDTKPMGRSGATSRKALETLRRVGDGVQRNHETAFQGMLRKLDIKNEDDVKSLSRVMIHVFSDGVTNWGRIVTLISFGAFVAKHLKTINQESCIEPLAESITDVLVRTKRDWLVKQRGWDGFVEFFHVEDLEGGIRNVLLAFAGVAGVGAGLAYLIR

[15] = molecular target: T5, Intestinal-type alkaline phosphatase (Homo sapiens, UniProt P09923); assay: human IAP activators, dose response, biochemical, luminescent, uHTS hits, set 2 (AID 488817); assay type: functional;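 further: potency of activators that raise enzyme activity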
T5 sequence (P09923 whole entry): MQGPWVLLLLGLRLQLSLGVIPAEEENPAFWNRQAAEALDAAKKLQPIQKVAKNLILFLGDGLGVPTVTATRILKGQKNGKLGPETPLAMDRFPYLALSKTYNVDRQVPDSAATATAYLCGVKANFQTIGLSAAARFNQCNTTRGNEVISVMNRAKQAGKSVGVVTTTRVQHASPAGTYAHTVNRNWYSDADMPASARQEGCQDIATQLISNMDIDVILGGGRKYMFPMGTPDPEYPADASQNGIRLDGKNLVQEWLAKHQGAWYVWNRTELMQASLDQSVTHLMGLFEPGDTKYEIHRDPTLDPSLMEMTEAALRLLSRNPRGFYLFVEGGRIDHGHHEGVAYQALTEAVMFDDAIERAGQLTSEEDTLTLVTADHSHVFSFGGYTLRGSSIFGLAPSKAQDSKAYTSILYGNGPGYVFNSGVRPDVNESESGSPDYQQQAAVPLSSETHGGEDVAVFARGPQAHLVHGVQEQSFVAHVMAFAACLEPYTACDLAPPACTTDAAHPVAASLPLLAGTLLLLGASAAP

Nonstructural protein 1 = Nonstructural protein 1 (Influenza A virus, UniProt Q194T2); assay type: functional, Influenza A virus (A/California/07/2009(H1N1))
Chain of Nonstructural protein 1 (Q194T2 whole entry): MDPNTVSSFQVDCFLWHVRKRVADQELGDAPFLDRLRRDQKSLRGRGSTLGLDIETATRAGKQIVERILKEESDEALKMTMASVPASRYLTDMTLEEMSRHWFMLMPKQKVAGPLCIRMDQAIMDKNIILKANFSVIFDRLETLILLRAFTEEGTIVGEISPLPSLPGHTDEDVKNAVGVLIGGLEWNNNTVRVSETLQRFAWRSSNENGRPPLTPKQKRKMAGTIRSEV

[16] = molecular target: T6, Alkaline phosphatase, tissue-nonspecific isozyme (Homo sapiens, UniProt P05186); assay: inhibition of tissue-nonspecific alkaline phosphatase – biochemical, dose response (AID 488882); assay type: functional
T6 sequence (P05186 whole entry): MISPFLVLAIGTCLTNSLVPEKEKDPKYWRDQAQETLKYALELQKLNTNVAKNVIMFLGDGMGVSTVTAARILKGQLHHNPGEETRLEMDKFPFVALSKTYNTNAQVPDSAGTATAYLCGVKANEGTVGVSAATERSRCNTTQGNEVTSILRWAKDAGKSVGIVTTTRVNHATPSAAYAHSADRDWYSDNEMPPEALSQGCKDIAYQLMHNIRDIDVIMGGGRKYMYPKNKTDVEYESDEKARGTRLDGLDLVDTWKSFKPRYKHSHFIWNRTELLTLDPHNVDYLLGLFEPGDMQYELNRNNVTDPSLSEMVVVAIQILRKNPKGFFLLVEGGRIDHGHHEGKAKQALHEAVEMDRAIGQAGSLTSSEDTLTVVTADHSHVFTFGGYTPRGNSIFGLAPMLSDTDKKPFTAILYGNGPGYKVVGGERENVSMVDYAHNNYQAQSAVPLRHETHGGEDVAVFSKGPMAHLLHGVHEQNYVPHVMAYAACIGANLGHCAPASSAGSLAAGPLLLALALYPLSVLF

[17] = molecular target: T5, Intestinal-type alkaline phosphatase; assay: human intestinal alkaline phosphatase activators, dose response, biochemical, luminescence, uHTS hits (AID 463120); assay type: functional
[18] = molecular target: T7, Rac GTPase-activating protein 1 (Homo sapiens, UniProt Q9H0H5); assay: MgcRacGAP GTPase-activating activity inhibitors, confirmation, biochemical, ADP Hunter fluorescence, primary and confirmatory (AID 624330); assay type: functional
T7 sequence (Q9H0H5 whole entry): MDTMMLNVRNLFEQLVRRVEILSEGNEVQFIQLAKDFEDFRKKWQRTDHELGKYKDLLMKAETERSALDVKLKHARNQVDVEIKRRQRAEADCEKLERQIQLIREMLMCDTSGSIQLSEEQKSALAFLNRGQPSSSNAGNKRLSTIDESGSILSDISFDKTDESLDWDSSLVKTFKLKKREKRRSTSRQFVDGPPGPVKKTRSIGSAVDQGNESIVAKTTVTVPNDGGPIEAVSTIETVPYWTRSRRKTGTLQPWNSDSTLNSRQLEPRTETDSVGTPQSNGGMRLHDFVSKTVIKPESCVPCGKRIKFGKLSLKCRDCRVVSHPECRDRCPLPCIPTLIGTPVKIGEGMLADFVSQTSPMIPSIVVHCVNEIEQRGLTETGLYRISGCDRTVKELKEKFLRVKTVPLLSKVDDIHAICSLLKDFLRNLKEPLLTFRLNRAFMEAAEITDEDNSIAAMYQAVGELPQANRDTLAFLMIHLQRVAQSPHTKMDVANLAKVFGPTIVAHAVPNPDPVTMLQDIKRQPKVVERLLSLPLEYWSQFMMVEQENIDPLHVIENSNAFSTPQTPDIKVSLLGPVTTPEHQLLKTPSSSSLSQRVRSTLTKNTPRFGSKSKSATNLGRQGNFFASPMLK

COC(=O)Cn1cc(C=C2C(=O)N(C)C(=O)N(C)C2=O)c2ccccc21
EC50 [1]: 2.85 µM (inconclusive) | AC50 [2]: 129 µM (active) | EC50 [3]: 3.15 µM (inconclusive)

COc1ccc(-c2oc3ccccc3c(=O)c2OC(=O)c2ccc(C)cc2)cc1
AC50 (Cytochrome P450 1A2): 1.41 µM (inconclusive) | AC50 (Cytochrome P450 2D6): inconclusive | AC50 (Cytochrome P450 2C19): 1 µM (inconclusive)

CCOC(=O)N1CCN(C(=O)C2CCN(C(=O)c3ccccc3C)CC2)CC1
IC50 (Apelin receptor): > 66.6 µM (inactive) | IC50 (Beta-galactosidase): > 66.6 µM (inactive)

Cc1ccc(S(=O)(=O)Nc2cccc(S(=O)(=O)Nc3ccccc3C(=O)O)c2)c(C)c1
AC50 (Keap1/Nrf2): > 52 µM (inactive)

COc1cccc(/C=N/Nc2nc(Nc3ccccc3)nc(-n3nc(C)cc3C)n2)c1O
EC50 [4]: 52.9 µM (active) | EC50 (Streptococcus): 4.15 µM (active) | EC50 (HEK293 [5]): > 59.6 µM (inactive) | IC50 [6]: > 66.6 µM (inactive) | EC50 [7]: 8.28 µM (active) | CC50 [8]: 8.56 µM (active) | IC50 (Beta-galactosidase): > 66.6 µM (inactive) | EC50 [9]: 0.127 µM (active) | EC50 (HEK293 [10]): > 59.6 µM (inactive) | AC50 (INS1): 0.535 µM (active) | EC50 [11]: 1.7 µM (active) | EC50 (Streptokinase A): > 150 µM (not active)

CC1C(=O)NN=C1C(=O)N/N=C\c1ccc(O)cc1O (centres undefined)
CC50 [12]: 100 µM (active) | IC50 [13]: > 100 µM (inactive) | IC50 [14]: 7.72 µM (active) | EC50 [15]: 11.3 µM (active) | IC50 (Nonstructural protein 1): 15.9 µM (active) | IC50 [16]: 7.32 µM (active) | EC50 [17]: 8.3 µM (active) | IC50 [18]: 45.4 µM (active)
